Assay results from PMC12808100, “The non-catalytic DNA polymerase ε subunit is an NPF motif recognition protein” (Nature Communications, 2025).
Residues, ends and D or L forms follow the SMILES beside them.

Experiments:
[1] = target: HSPA5 (Homo sapiens, UniProt P11021); test: nHU-MS peptide bait, prey HSPA5
[2] = target: T1, EHD1 (Homo sapiens, UniProt Q9H4M9); test: nHU-MS peptide bait, prey EHD1; settings: for BI: prey EHD1, MS7_Varjosalo
T1 sequence (Q9H4M9 1-534): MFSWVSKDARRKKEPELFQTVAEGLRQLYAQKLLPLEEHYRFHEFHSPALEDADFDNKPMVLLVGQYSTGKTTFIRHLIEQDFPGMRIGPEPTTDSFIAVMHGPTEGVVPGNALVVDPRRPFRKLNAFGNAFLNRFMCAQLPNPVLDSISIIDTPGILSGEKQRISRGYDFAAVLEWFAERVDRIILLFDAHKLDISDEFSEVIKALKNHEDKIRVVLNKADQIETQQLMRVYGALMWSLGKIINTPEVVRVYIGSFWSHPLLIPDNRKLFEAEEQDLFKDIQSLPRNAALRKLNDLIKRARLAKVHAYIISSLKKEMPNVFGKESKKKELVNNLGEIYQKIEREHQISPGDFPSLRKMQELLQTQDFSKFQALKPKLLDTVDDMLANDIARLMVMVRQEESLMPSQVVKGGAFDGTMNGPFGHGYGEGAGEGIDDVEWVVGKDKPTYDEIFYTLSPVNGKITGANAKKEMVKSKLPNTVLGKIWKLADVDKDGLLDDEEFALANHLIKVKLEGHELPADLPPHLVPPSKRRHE

[3] = target: T2, PPP2R2A (Homo sapiens, UniProt P63151); test: nHU-MS peptide bait, prey PPP2R2A; settings: for Kd: pKapp
T2 sequence (P63151 1-447): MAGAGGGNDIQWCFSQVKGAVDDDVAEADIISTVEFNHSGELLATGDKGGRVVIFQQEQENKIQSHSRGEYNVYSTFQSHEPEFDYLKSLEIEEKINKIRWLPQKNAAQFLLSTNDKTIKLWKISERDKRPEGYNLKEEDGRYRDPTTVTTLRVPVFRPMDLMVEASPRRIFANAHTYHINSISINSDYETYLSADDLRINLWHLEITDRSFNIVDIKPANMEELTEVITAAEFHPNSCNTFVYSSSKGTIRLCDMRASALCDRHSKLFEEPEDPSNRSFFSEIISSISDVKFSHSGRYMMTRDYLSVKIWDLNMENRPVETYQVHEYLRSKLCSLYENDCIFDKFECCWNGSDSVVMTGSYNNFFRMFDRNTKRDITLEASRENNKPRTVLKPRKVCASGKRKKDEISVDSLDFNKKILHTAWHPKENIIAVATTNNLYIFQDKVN

[4] = target: CCDC174 (Homo sapiens, UniProt Q6PII3); test: nHU-MS peptide bait, prey CCDC174
[5] = target: PLEK (Homo sapiens, UniProt P08567); test: nHU-MS peptide bait, prey PLEK
[6] = target: SSBP2 (Homo sapiens, UniProt P81877+Q86U70); test: nHU-MS peptide bait, prey SSBP2
[7] = target: AURKA (Homo sapiens, UniProt O14965); test: nHU-MS peptide bait, prey AURKA
[8] = target: SSBP4 (Homo sapiens, UniProt Q86U70+Q9BWG4); test: nHU-MS peptide bait, prey SSBP4
SSBP4, sequence (Q9BWG4 whole entry): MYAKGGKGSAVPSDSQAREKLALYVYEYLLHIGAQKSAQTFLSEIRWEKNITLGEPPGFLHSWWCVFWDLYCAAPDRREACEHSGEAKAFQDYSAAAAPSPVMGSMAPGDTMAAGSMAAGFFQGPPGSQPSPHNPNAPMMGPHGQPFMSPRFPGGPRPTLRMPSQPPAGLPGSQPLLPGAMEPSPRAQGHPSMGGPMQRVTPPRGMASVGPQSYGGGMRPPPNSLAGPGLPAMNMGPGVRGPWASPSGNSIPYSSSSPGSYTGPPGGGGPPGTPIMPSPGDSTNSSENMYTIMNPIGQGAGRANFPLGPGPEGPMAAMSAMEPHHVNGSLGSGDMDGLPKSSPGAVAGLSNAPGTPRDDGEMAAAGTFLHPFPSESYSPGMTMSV
SSBP4, sequence (Q86U70 whole entry): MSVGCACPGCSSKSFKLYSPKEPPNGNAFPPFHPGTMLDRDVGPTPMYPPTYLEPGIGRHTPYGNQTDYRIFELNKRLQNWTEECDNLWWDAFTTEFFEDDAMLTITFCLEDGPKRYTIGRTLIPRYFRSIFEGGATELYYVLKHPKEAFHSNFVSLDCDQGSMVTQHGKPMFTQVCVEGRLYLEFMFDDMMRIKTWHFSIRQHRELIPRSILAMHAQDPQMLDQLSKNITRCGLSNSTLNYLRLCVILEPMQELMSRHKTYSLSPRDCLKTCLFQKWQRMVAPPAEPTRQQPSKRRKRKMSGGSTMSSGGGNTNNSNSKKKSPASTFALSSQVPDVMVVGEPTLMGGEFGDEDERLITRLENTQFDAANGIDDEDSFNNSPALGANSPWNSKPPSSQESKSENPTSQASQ

HSPA5, sequence (P11021 19-654): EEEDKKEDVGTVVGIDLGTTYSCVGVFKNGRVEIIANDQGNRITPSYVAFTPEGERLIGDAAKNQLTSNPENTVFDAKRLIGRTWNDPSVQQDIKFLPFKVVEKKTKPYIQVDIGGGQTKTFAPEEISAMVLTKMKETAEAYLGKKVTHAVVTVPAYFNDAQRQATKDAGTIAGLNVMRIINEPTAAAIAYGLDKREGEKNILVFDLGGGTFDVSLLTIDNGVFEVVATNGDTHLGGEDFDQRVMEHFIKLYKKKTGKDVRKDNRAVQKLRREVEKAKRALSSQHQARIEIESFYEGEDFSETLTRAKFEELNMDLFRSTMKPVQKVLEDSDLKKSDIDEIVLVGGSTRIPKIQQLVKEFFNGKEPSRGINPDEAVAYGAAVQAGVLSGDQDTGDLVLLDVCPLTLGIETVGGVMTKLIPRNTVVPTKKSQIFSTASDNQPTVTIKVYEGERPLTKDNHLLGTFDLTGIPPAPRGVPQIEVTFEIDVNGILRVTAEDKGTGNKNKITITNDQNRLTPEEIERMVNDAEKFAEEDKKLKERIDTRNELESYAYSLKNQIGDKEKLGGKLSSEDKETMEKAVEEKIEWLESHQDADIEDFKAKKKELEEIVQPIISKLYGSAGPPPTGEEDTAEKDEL
CCDC174, sequence (Q6PII3 whole entry): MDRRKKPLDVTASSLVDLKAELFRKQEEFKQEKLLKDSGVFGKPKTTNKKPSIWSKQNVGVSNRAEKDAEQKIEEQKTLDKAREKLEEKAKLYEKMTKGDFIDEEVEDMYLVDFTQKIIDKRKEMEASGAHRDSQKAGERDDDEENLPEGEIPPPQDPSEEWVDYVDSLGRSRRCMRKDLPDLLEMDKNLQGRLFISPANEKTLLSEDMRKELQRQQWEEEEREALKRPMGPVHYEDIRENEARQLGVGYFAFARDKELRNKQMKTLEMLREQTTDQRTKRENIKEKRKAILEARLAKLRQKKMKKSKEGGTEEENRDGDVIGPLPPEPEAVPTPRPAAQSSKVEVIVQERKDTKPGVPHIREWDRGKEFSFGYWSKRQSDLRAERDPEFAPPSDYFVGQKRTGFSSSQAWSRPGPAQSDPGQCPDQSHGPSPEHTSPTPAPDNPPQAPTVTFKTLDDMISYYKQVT
PLEK, sequence (P08567 whole entry): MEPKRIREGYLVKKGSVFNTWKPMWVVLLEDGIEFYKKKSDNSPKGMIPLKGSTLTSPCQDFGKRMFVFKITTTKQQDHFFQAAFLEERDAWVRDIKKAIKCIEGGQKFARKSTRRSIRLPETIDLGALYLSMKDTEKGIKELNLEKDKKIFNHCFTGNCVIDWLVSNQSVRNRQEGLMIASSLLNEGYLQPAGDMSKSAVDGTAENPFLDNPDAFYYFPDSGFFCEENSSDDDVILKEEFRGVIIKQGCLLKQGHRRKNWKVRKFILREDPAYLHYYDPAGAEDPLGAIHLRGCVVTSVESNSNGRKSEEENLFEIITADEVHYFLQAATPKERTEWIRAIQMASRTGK
AURKA, sequence (O14965 whole entry): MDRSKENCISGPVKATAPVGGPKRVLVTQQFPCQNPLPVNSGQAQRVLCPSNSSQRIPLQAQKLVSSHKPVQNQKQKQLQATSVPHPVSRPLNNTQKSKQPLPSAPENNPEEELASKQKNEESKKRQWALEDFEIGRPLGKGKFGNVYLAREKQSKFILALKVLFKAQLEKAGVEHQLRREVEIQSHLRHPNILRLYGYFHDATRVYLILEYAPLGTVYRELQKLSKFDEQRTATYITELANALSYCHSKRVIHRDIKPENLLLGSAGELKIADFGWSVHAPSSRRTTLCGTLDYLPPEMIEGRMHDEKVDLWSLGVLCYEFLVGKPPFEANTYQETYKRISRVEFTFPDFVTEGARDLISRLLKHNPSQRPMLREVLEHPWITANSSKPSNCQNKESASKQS
SSBP2, sequence (P81877 whole entry): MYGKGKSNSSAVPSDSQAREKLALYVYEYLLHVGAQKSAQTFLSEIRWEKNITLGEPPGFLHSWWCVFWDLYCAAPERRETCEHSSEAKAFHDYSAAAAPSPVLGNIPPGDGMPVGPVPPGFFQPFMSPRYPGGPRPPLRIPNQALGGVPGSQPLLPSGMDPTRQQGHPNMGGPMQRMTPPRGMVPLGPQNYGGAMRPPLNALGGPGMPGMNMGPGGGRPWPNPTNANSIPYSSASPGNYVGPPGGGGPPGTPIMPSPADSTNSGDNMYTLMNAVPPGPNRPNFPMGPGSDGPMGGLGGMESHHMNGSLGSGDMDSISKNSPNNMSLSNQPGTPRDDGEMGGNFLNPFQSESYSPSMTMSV
SSBP2, sequence (Q86U70 whole entry): as the sequence (Q86U70 whole entry) above

CC[C@H](C)[C@H](NC(=O)[C@H](Cc1ccccc1)NC(=O)[C@@H]1CCCN1C(=O)[C@H](CC(N)=O)NC(=O)[C@@H]1CCCN1C(=O)[C@H](CO)NC(=O)[C@H](CO)NC(=O)[C@@H](N)CCCNC(=N)N)C(=O)N[C@H](C(=O)NCC(=O)N[C@@H](CC(C)C)C(=O)N[C@H](C(=O)N[C@@H](CCCNC(=N)N)C(=O)N[C@H](C(=O)N[C@@H](CC(N)=O)C(=O)N1CCC[C@H]1C(=O)N[C@@H](Cc1ccccc1)C(=O)N[C@@H](CO)C(=O)N[C@@H](CC(=O)O)C(=O)N[C@@H](CCCNC(=N)N)C(=O)N[C@H](C(=O)N[C@@H](C)C(=O)N[C@@H](C)C(=O)N1CCC[C@H]1C(=O)NCC(=O)N[C@@H](CC(N)=O)C(=O)N1CCC[C@H]1C(=O)N[C@@H](Cc1ccccc1)C(=O)N[C@@H](CCCNC(=N)N)C(=O)N[C@@H](C)C(=O)N[C@@H](CCCCN)C(=O)N[C@@H](CO)C(N)=O)[C@@H](C)O)[C@@H](C)O)[C@@H](C)O)[C@@H](C)O [SYNJ1_1390-1421] (H-RSSPNPFITGLTRTNPFSDRTAAPGNPFRAKS-NH2) was tested, and the Kd [1] was 19.9 µM, the BI ([1]; prey HSPA5, MS5_Varjosalo) was 0.3347 and the Kd [2] was 24.3 µM. The BI [2] was 0.2916, the BI ([3]; MS5_Varjosalo) was 0.2309 and the BI ([3]; MS7_Varjosalo) was 0.2507. It also gave a Kd ([3]; MS5_Varjosalo) of 33.3 µM and a Kd ([3]; MS7_Varjosalo) of 29.9 µM.

CC[C@H](C)[C@H](NC(=O)[C@@H](N)CCCNC(=N)N)C(=O)N1CCC[C@H]1C(=O)N[C@H](C(=O)N[C@@H](CC(C)C)C(=O)N[C@@H](CC(N)=O)C(=O)N1CCC[C@H]1C(=O)N[C@@H](Cc1ccccc1)C(=O)N[C@@H](CCC(=O)O)C(=O)N[C@@H](CO)C(=O)N1CCC[C@H]1C(=O)N[C@@H](CO)C(=O)N[C@@H](CC(=O)O)C(=O)N[C@@H](Cc1ccc(O)cc1)C(=O)N[C@@H](CO)C(=O)N[C@@H](CC(N)=O)C(=O)N[C@@H](CC(C)C)C(=O)N[C@@H](Cc1c[nH]cn1)C(=O)N[C@@H](CCC(=O)O)C(=O)N[C@@H](CCC(N)=O)C(=O)N[C@H](C(N)=O)[C@@H](C)O)C(C)C [BORA] (H-RIPVLNPFESPSDYSNLHEQT-NH2) was tested, and the Kd [4] was 10.9 µM, the BI ([4]; prey CCDC174, MS7_Varjosalo) was 0.4787 and the Kd [2] was 39.4 µM. For the same compound, the BI [2] was 0.2025, the Kd [5] was 9.44 µM and the BI ([5]; prey PLEK, MS7_Varjosalo) was 0.5145.

In the case of CSCC[C@H](NC(=O)[C@@H]1CCCN1C(=O)[C@@H](NC(=O)[C@@H]1CCCN1C(=O)[C@@H]1CCCN1C(=O)[C@@H]1CCCN1C(=O)[C@H](C)NC(=O)[C@H](Cc1ccccc1)NC(=O)[C@H](CCC(=O)O)NC(=O)[C@@H](NC(=O)[C@H](CC(C)C)NC(=O)[C@@H](N)Cc1c[nH]cn1)[C@@H](C)O)[C@@H](C)O)C(=O)N[C@H](C(=O)N[C@@H](CC(=O)O)C(=O)N[C@@H](Cc1c[nH]cn1)C(=O)N[C@@H](CC(C)C)C(=O)N[C@H](C(=O)N[C@@H](C)C(=O)N[C@@H](CO)C(=O)N[C@@H](CC(N)=O)C(=O)N1CCC[C@H]1C(=O)N[C@@H](Cc1ccccc1)C(=O)N[C@@H](CCC(=O)O)C(=O)N[C@@H](CC(=O)O)C(=O)N[C@@H](CC(=O)O)C(=O)N[C@@H](Cc1ccccc1)C(=O)NCC(=O)N[C@@H](C)C(=O)N1CCC[C@H]1C(=O)N[C@@H](CCCCN)C(N)=O)C(C)C)C(C)C [PYGO2 57-86], the Kd [6] is reported as 18.9 µM, the BI ([6]; prey SSBP2, MS8_Varjosalo) is reported as 0.3462 and the Kd [7] is reported as 28.6 µM. It also gave a BI ([7]; prey AURKA, MS8_Varjosalo) of 0.2591, a Kd [8] of 12.2 µM and a BI ([8]; prey SSBP4, MS8_Varjosalo) of 0.451.
